Laboratory results reported in patent US8314121B2, “Imidazolone derivatives, preparation thereof as drugs, pharmaceutical compositions, and use thereof as protein kinase inhibitors, in particular CDC7” (Sanofi, priority 2006, dated 2012).

melting point [°C]	SMILES
320 to 321	Cc1cnc2[nH]cc(/C=C3\N=C(N4CCCCC4)NC3=O)c2c1 [Example 45, (5Z)-5-[(5-methyl-1H-pyrrolo[2,3-b]pyridin-3-yl)methylidene]-2-piperidin-1-yl-3,5-dihydro-4H-imidazol-4-one]
331	O=C1NC(NCC2CC2)=N/C1=C\c1c[nH]c2ncc(N3CCOCC3)cc12 [Example 51, (5Z)-2-[(cyclopropylmethyl)amino]-5-[(5-morpholin-4-yl-1H-pyrrolo[2,3-b]pyridin-3-yl)methylidene]-3,5-dihydro-4H-imidazol-4-one]
295 to 296	O=C1NC(CC2CC2)=N/C1=C\c1c[nH]c2ncc(Cl)cc12 [Example 78, (5Z)-2-(cyclopropylmethyl)-5-(5-chloro-1H-pyrrolo[2,3-b]pyridin-3-ylmethylidene)-3,5-dihydro-4H-imidazol-4-one]
350	CN(Cc1ccccn1)C1=N/C(=C\c2c[nH]c3ncc(Cl)cc23)C(=O)N1 [Example 96, (5Z)-5-[(5-chloro-1H-pyrrolo[2,3-b]pyridin-3-yl)methylidene]-2-[methyl(pyridin-2-ylmethyl)amino]-3,5-dihydro-4H-imidazol-4-one]
310	CN(Cc1ccccc1)C1=N/C(=C\c2c[nH]c3ncc(Cl)cc23)C(=O)N1 [Example 93, (5Z)-2-[benzyl(methyl)amino]-5-[(5-chloro-1H-pyrrolo[2,3-b]pyridin-3-yl)methylidene]-3,5-dihydro-4H-imidazol-4-one]
283 to 285	CN1C(=O)/C(=C/c2c[nH]c3ncccc23)N=C1C1CCOCC1 [Example 72, (5Z)-5-[(1H-pyrrolo[2,3-b]pyridin-3-yl)methylidene]-3-methyl-2-(tetrahydro-2H-pyran-4-yl)-3,5-dihydro-4H-imidazol-4-one]
206	CCCN1C(=O)/C(=C/c2c[nH]c3ncccc23)N=C1C [Example 87, (5Z)-2-methyl-3-propyl-5-(1H-pyrrolo[2,3-b]pyridin-3-ylmethylidene)-3,5-dihydro-4H-imidazol-4-one]
201	CC(C)CC1=N/C(=C\c2c[nH]c3ncccc23)C(=O)N1C [Example 75, (5Z)-3-methyl-2-(2-methylpropyl)-5-(1H-pyrrolo[2,3-b]pyridin-3-ylmethylidene)-3,5-dihydro-4H-imidazol-4-one]
288 to 290	CCCCC1=N/C(=C\c2c[nH]c3ncc(Cl)cc23)C(=O)N1 [Example 64, (5Z)-2-butyl-5-[(5-chloro-1H-pyrrolo[2,3-b]pyridin-3-yl)methylidene]-3,5-dihydro-4H-imidazol-4-one]
317 to 319	O=C1NC(C2CCOCC2)=N/C1=C\c1c[nH]c2ncccc12 [Example 71, (5Z)-5-(1H-pyrrolo[2,3-b]pyridin-3-ylmethylidene)-2-(tetrahydro-2H-pyran-4-yl)-3,5-dihydro-4H-imidazol-4-one]
361	O=C1NC(N2CCOCC2)=N/C1=C\c1c[nH]c2ncc(-c3ccccc3)cc12 [Example 39, (5Z)-2-morpholin-4-yl-5-[(5-phenyl-1H-pyrrolo[2,3-b]pyridin-3-yl)methylidene]-3,5-dihydro-4H-imidazol-4-one]
350	CN(C)C1=N/C(=C\c2c[nH]c3ncc(Cl)cc23)C(=O)N1 [Example 32, (5Z)-5-[(5-chloro-1H-pyrrolo[2,3-b]pyridin-3-yl)methylidene]-2-(dimethylamino)-3,5-dihydro-4H-imidazol-4-one]
282	CC(C)C1=N/C(=C\c2c[nH]c3ncc(Cl)cc23)C(=O)N1C [Example 82, (5Z)-5-[(5-chloro-1H-pyrrolo[2,3-b]pyridin-3-yl)methylidene]-3-methyl-2-(1-methylethyl)-3,5-dihydro-4H-imidazol-4-one]
319 to 320	Cc1cnc2[nH]cc(/C=C3\N=C(NCC4CC4)NC3=O)c2c1 [Example 43, (5Z)-2-[(cyclopropylmethyl)amino]-5-[(5-methyl-1H-pyrrolo[2,3-b]pyridin-3-yl)methylidene]-3,5-dihydro-4H-imidazol-4-one]
